Patent publication EP4667483A1, “HUMAN TRANSFERRIN RECEPTOR-BINDING PEPTIDE” (JCR Pharmaceuticals Co., Ltd., priority 2023, dated 2024)
Numbered stars: 1 amine (or outer) side, 2 acyl side, 3 side chain; on linkers, the order of the positions; unused ones are H or OH. Bridge positions count the residues as written; N and C are the ends. Square brackets hold non-standard residues; d marks the D form. Peptide text beside a SMILES is read from it. * marks the point of attachment. Ala(imidazo(1,2-a)pyr3yl) = N[C@@H](Cc1cnc2ccccn12)C(=O)O; Trp(1-CH2COOH) = N[C@@H](Cc1cn(CC(=O)O)c2ccccc12)C(=O)O; CH2CON(CH2CH2)2NCH2COOH = O=C(O)CN1CCN(C(=O)C*)CC1; NMePhe(4-COOH) = CN[C@@H](Cc1ccc(C(=O)O)cc1)C(=O)O; X1 = O=C([C@H](Cc1cccc(C(=O)[*:3])c1)N[*:1])[*:2]; Nle(6-morpholino) = N[C@@H](CCCCN1CCOCC1)C(=O)O; Phe(3-COOH) = N[C@@H](Cc1cccc(C(=O)O)c1)C(=O)O; Trp(7-aza) = N[C@@H](Cc1c[nH]c2ncccc12)C(=O)O; NH(CH2CH2O)8Me = COCCOCCOCCOCCOCCOCCOCCOCCN*; NMePhe(3-Cl) = CN[C@@H](Cc1cccc(Cl)c1)C(=O)O; 3Pal(6-NH2) = Nc1ccc(C[C@H](N)C(=O)O)cn1; NMeW = CN[C@@H](Cc1c[nH]c2ccccc12)C(=O)O; Lys(N3) = [N-]=[N+]=NCCCC[C@H](N)C(=O)O; NMeY = CN[C@@H](Cc1ccc(O)cc1)C(=O)O; Nva(3-Et) = CCC(CC)[C@H](N)C(=O)O; NMeF = CN[C@@H](Cc1ccccc1)C(=O)O; 3Pal = N[C@@H](Cc1cccnc1)C(=O)O; 4Pal = N[C@@H](Cc1ccncc1)C(=O)O; PEG4 = NCCOCCOCCOCCOCCC(=O)O; Carboxymethyl = O=C(O)C*; NH(CH2)3NH2 = NCCCN*

Assays:
[1] = biological target: T1, human transferrin receptor (hTfR) (Homo sapiens, UniProt P02786); experiment: SPR measurement under pH 7.4 conditions (Biacore T200, CM3 chip, hTfR captured by His Tag antibody); type: binding; details: read-out: hTfR SPR pH7.4 KD
T1 sequence (P02786 whole entry): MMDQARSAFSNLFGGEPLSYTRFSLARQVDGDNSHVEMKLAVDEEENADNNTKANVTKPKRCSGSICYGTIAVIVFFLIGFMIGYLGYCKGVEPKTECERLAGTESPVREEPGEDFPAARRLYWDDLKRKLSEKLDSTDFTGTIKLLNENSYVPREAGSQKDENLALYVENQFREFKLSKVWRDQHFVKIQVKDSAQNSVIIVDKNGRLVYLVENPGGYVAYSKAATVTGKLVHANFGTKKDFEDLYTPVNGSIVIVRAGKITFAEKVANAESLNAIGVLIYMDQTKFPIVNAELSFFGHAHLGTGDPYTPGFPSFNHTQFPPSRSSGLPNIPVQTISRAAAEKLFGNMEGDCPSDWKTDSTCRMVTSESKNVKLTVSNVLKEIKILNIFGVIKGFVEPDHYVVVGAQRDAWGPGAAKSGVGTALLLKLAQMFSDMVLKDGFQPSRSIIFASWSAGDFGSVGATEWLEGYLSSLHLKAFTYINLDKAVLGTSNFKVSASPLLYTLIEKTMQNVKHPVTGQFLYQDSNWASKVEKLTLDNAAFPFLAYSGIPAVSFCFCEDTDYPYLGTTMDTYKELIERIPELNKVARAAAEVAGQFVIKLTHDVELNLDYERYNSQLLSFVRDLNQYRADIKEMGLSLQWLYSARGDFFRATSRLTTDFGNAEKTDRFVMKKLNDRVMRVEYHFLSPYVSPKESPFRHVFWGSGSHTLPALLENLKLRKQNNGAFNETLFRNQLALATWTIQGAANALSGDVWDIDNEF

[2] = biological target: T1, human transferrin receptor (hTfR); experiment: SPR measurement under pH 6.0 conditions (Biacore T200, NTA chip, immobilized hTfR); type: binding; details: read-out: hTfR SPR pH6.0 KD
[3] = SPR, pH 7.4, peptide with the linker named in the table
[4] = SPR, pH 6.0, peptide with the linker named in the table

Compound | Kd ([1]; pH 7.4, single-cycle kinetics) [nM] | Kd ([2]; pH 6.0, single-cycle kinetics) [nM] | Kd [1, 3] [nM] | Kd [2, 4] [nM] | other results
CC[C@H](C)[C@@H]1NC(=O)[C@H](Cc2ccc(OC)cc2)NC(=O)[C@H](Cc2ccc(N)nc2)NC(=O)[C@H](CC(N)=O)NC(=O)[C@H](Cc2cn(CC(=O)O)c3ccccc23)NC(=O)[C@H](C(C)C)NC(=O)[C@H](Cc2cccc(Cl)c2)N(C)C(=O)[C@H](C(C)C)NC(=O)[C@H](C)NC(=O)CSC[C@@H](C(=O)NCCOCCOCCOCCOCCC(N)=O)NC(=O)[C@H](Cc2ccc(O)cc2)N(C)C(=O)[C@H](Cc2ccncc2)NC(=O)[C@H](CCCCN2CCOCC2)NC(=O)[C@H](CCCCN2CCOCC2)NC(=O)[C@H]([C@@H](C)CC)NC1=O [compound 6] ({CH2CO}-AV[NMePhe(3-Cl)]V[Trp(1-CH2COOH)]N[3Pal(6-NH2)]Y(Me)II[Nle(6-morpholino)][Nle(6-morpholino)][4Pal][NMeY]C[PEG4]-NH2; thioether N-15) | 6.56 | 21 | – | – | –
CC[C@H](C)[C@@H]1NC(=O)[C@H](Cc2ccc(OCC(=O)O)cc2)NC(=O)[C@H](Cc2ccc(O)cc2)NC(=O)[C@H](CC(N)=O)NC(=O)[C@H](Cc2c[nH]c3ncccc23)NC(=O)[C@H](C(C)C)NC(=O)[C@H](Cc2cccc(Cl)c2)N(C)C(=O)[C@H](C(C)C)NC(=O)[C@H](C)NC(=O)CSC[C@@H](C(=O)NCCOCCOCCOCCOCCC(N)=O)NC(=O)[C@H](Cc2ccc(O)cc2)N(C)C(=O)[C@H](Cc2ccncc2)NC(=O)[C@H](CCCNC(=N)N)NC(=O)[C@H](CCC(=O)NCCOCCOCCOCCOCCOCCOCCOCCOCCC(=O)O)NC(=O)[C@H]([C@@H](C)CC)NC1=O [compound 62] | 28.5 | 92.1 | – | – | –
CCC(CC)[C@@H]1NC(=O)[C@H](Cc2ccc(OCC(=O)O)cc2)NC(=O)[C@H](Cc2ccc(O)cc2)NC(=O)[C@H](CC(N)=O)NC(=O)[C@H](Cc2cn(CC(=O)O)c3ccccc23)NC(=O)[C@H](C(C)C)NC(=O)[C@H](Cc2cccc(Cl)c2)N(C)C(=O)[C@H](C(C)C)NC(=O)[C@H](C)NC(=O)CSC[C@@H](C(=O)NCCOCCOCCOCCOCCC(N)=O)NC(=O)[C@H](Cc2ccc(O)cc2)N(C)C(=O)[C@H](Cc2cccnc2)NC(=O)[C@H](CCCNC(=N)N)NC(=O)[C@H](CCC(N)=O)NC(=O)[C@H]([C@@H](C)CC)NC1=O [compound 105] ({CH2CO}-AV[NMePhe(3-Cl)]V[Trp(1-CH2COOH)]NYY(Carboxymethyl)[Nva(3-Et)]IQR[3Pal][NMeY]C[PEG4]-NH2; thioether N-15) | – | – | 10.6 | 67.9 | –
CC[C@H](C)[C@@H]1NC(=O)[C@H](Cc2ccc(OC)cc2)NC(=O)[C@H](Cc2ccc(N)nc2)NC(=O)[C@H](CC(N)=O)NC(=O)[C@H](Cc2c[nH]c3ncccc23)NC(=O)[C@H](C(C)C)NC(=O)[C@H](Cc2cccc(Cl)c2)N(C)C(=O)[C@H](C(C)C)NC(=O)[C@H](C)NC(=O)CSC[C@@H](C(=O)NCC(=O)N[C@@H](CCCCN=[N+]=[N-])C(N)=O)NC(=O)[C@H](Cc2ccc(O)cc2)N(C)C(=O)[C@H](Cc2ccncc2)NC(=O)[C@H](CCCCN2CCOCC2)NC(=O)[C@H](CCCCN2CCOCC2)NC(=O)[C@H]([C@@H](C)CC)NC1=O [compound 68] ({CH2CO}-AV[NMePhe(3-Cl)]V[Trp(7-aza)]N[3Pal(6-NH2)]Y(Me)II[Nle(6-morpholino)][Nle(6-morpholino)][4Pal][NMeY]CG[Lys(N3)]-NH2; thioether N-15) | 2.06 | 12.4 | – | – | –
CCC(CC)[C@@H]1NC(=O)[C@H](Cc2ccc(O)cc2)NC(=O)[C@H](Cc2ccc(N)nc2)NC(=O)[C@H](CC(N)=O)NC(=O)[C@H](Cc2c[nH]c3ccccc23)N(C)C(=O)[C@H](C(C)C)NC(=O)[C@H](Cc2ccccc2)N(C)C(=O)[C@H](C(C)C)NC(=O)[C@H](C)NC(=O)CSC[C@@H](C(=O)NCC(=O)N[C@@H](CCCCN=[N+]=[N-])C(N)=O)NC(=O)[C@H](Cc2ccc(C(=O)O)cc2)N(C)C(=O)[C@H](Cc2ccc(O)cc2)NC(=O)[C@H](CCCNC(=N)N)NC(=O)[C@H](CCCCN)NC(=O)[C@H]([C@@H](C)CC)NC1=O [compound 187] ({CH2CO}-AV[NMeF]V[NMeW]N[3Pal(6-NH2)]Y[Nva(3-Et)]IKRY[NMePhe(4-COOH)]CG[Lys(N3)]-NH2; thioether N-15) | – | – | – | – | Kd ([1]; SPR, pH 7.4, Table 1-3-2-2): 9.9 nM; Kd ([2]; SPR, pH 6.0, Table 1-3-2-2): 30.7 nM
CC[C@H](C)[C@@H]1NC(=O)[C@H](Cc2ccc(OCC(=O)N3CCN(CC(=O)O)CC3)cc2)NC(=O)[C@H](Cc2ccc(O)cc2)NC(=O)[C@H](CC(N)=O)NC(=O)[C@H](Cc2cn(CC(=O)O)c3ccccc23)NC(=O)[C@H](C(C)C)NC(=O)[C@H](Cc2cccc(Cl)c2)N(C)C(=O)[C@H](C(C)C)NC(=O)[C@H](C)NC(=O)CSC[C@@H](C(=O)NCCOCCOCCOCCOCCC(N)=O)NC(=O)[C@H](Cc2ccc(O)cc2)N(C)C(=O)[C@H](Cc2ccccc2)NC(=O)[C@H](CCCCN2CCOCC2)NC(=O)[C@H](CCC(=O)NCCOCCOCCOCCOCCOCCOCCOCCOC)NC(=O)[C@H]([C@@H](C)CC)NC1=O [compound 30] ({CH2CO}-AV[NMePhe(3-Cl)]V[Trp(1-CH2COOH)]NYY(CH2CON(CH2CH2)2NCH2COOH)IIE(NH(CH2CH2O)8Me)[Nle(6-morpholino)]F[NMeY]C[PEG4]-NH2; thioether N-15) | 10.2 | 95.6 | – | – | –

Second part, led by results:

Kd ([1]; pH 7.4, single-cycle kinetics) [nM] | Kd ([2]; pH 6.0, single-cycle kinetics) [nM] | Kd [1, 3] [nM] | Kd [2, 4] [nM] | Compound | other results
20.6 | 75.5 | – | – | CC[C@H](C)[C@@H]1NC(=O)[C@H](Cc2ccc(OC)cc2)NC(=O)[C@H](CCCNC(=N)N)NC(=O)[C@H](CC(N)=O)NC(=O)[C@H](Cc2c[nH]c3ccccc23)N(C)C(=O)[C@H](C(C)C)NC(=O)[C@H](Cc2cccc(Cl)c2)N(C)C(=O)[C@H](C(C)C)NC(=O)[C@H](C)NC(=O)CSC[C@@H](C(=O)NCCOCCOCCOCCOCCC(N)=O)NC(=O)[C@H](Cc2ccc(O)cc2)N(C)C(=O)[C@H](Cc2ccccc2)NC(=O)[C@H](CCCNC(=N)N)NC(=O)[C@H](CCC(N)=O)NC(=O)[C@H]([C@@H](C)CC)NC1=O [compound 174] ({CH2CO}-AV[NMePhe(3-Cl)]V[NMeW]NRY(Me)IIQRF[NMeY]C[PEG4]-NH2; thioether N-15) | –
– | – | 8.49 | 35.2 | CC[C@H](C)[C@@H]1NC(=O)[C@H](Cc2ccc(OCC(=O)O)cc2)NC(=O)[C@H](Cc2ccc(N)nc2)NC(=O)[C@H](CC(N)=O)NC(=O)[C@H](Cc2c[nH]c3ccccc23)NC(=O)[C@H](C(C)C)NC(=O)[C@H](Cc2cccc(Cl)c2)N(C)C(=O)[C@H](C(C)C)NC(=O)[C@H](C)NC(=O)CSC[C@@H](C(=O)NCCOCCOCCOCCOCCC(N)=O)NC(=O)[C@H](Cc2ccc(C(=O)O)cc2)N(C)C(=O)[C@H](Cc2cccc(C(=O)NCCOCCOCCOCCOCCC(=O)O)c2)NC(=O)[C@H](CCCNC(=N)N)NC(=O)[C@H](CCC(N)=O)NC(=O)[C@H]([C@@H](C)CC)NC1=O [compound 116] ({CH2CO}-AV[NMePhe(3-Cl)]VWN[3Pal(6-NH2)]Y(Carboxymethyl)IIQR[X1](PEG4)[NMePhe(4-COOH)]C[PEG4]-NH2; thioether N-15) | –
– | – | 13.9 | 36.1 | CCC(CC)[C@@H]1NC(=O)[C@H](Cc2ccc(OCC(=O)O)cc2)NC(=O)[C@H](Cc2ccc(O)cc2)NC(=O)[C@H](CC(N)=O)NC(=O)[C@H](Cc2c[nH]c3ncccc23)NC(=O)[C@H](C(C)C)NC(=O)[C@H](Cc2cccc(Cl)c2)N(C)C(=O)[C@H](C(C)C)NC(=O)[C@H](C)NC(=O)CSC[C@@H](C(=O)NCCOCCOCCOCCOCCC(N)=O)NC(=O)[C@H](Cc2ccc(C(=O)O)cc2)N(C)C(=O)[C@H](Cc2cccc(C(=O)O)c2)NC(=O)[C@H](CCCNC(=N)N)NC(=O)[C@H](CCC(N)=O)NC(=O)[C@H]([C@@H](C)CC)NC1=O [compound 108] ({CH2CO}-AV[NMePhe(3-Cl)]V[Trp(7-aza)]NYY(Carboxymethyl)[Nva(3-Et)]IQR[Phe(3-COOH)][NMePhe(4-COOH)]C[PEG4]-NH2; thioether N-15) | –
24.5 | 124 | – | – | CCC(CC)[C@@H]1NC(=O)[C@H](Cc2ccc(OC)cc2)NC(=O)[C@H](Cc2ccc(N)nc2)NC(=O)[C@H](CC(N)=O)NC(=O)[C@H](Cc2cnc3ccccn23)NC(=O)[C@H](C(C)C)NC(=O)[C@H](Cc2cccc(Cl)c2)N(C)C(=O)[C@H](C(C)C)NC(=O)[C@H](C)NC(=O)CSC[C@@H](C(=O)NCC(=O)N[C@@H](CCCCN=[N+]=[N-])C(N)=O)NC(=O)[C@H](Cc2ccc(C(=O)O)cc2)N(C)C(=O)[C@H](Cc2ccncc2)NC(=O)[C@H](CCCNC(=N)N)NC(=O)[C@H](CCCNC(=N)N)NC(=O)[C@H]([C@@H](C)CC)NC1=O [compound 181] ({CH2CO}-AV[NMePhe(3-Cl)]V[Ala(imidazo(1,2-a)pyr3yl)]N[3Pal(6-NH2)]Y(Me)[Nva(3-Et)]IRR[4Pal][NMePhe(4-COOH)]CG[Lys(N3)]-NH2; thioether N-15) | –
3.04 | 12.2 | – | – | CC[C@H](C)[C@@H]1NC(=O)[C@H](Cc2ccc(OC)cc2)NC(=O)[C@H](CCCNC(=N)N)NC(=O)[C@H](CC(N)=O)NC(=O)[C@H](Cc2c[nH]c3ccccc23)N(C)C(=O)[C@H](C(C)C)NC(=O)[C@H](Cc2cccc(Cl)c2)N(C)C(=O)[C@H](C(C)C)NC(=O)[C@H](C)NC(=O)CSC[C@@H](C(=O)NCCOCCOCCOCCOCCC(N)=O)NC(=O)[C@H](Cc2ccc(O)cc2)N(C)C(=O)[C@H](Cc2ccccc2)NC(=O)[C@H](CCCNC(=N)N)NC(=O)[C@H](CCC(=O)NCCCN)NC(=O)[C@H]([C@@H](C)CC)NC1=O [compound 175] ({CH2CO}-AV[NMePhe(3-Cl)]V[NMeW]NRY(Me)IIE(NH(CH2)3NH2)RF[NMeY]C[PEG4]-NH2; thioether N-15) | –
– | – | 5.8 | 13.2 | CCC(CC)[C@@H]1NC(=O)[C@H](Cc2ccc(O)cc2)NC(=O)[C@H](Cc2ccc(O)cc2)NC(=O)[C@H](CC(N)=O)NC(=O)[C@H](Cc2c[nH]c3ccccc23)N(C)C(=O)[C@H](C(C)C)NC(=O)[C@H](Cc2ccccc2)N(C)C(=O)[C@H](C(C)C)NC(=O)[C@H](C)NC(=O)CSC[C@@H](C(=O)NCCOCCOCCOCCOCCC(N)=O)NC(=O)[C@H](Cc2ccc(O)cc2)N(C)C(=O)[C@H](Cc2cccc(C(=O)NCCOCCOCCOCCOCCC(=O)O)c2)NC(=O)[C@H](CCCNC(=N)N)NC(=O)[C@H](CCCCN)NC(=O)[C@H]([C@@H](C)CC)NC1=O [compound 120] ({CH2CO}-AV[NMeF]V[NMeW]NYY[Nva(3-Et)]IKR[X1](PEG4)[NMeY]C[PEG4]-NH2; thioether N-15) | –
